What was measured:
[1] = test system: renal hypertensive rats; assay: Antihypertensive effects in renal hypertensive rats; type: in vivo, rat; settings: class symbol
Experimental: This procedure increases blood pressure by increasing renin production with consequent elevation of AII levels. Compounds are administered orally and/or intravenously via a cannula in the jugular vein. Arterial blood pressure is continuously measured directly through a cartoid artery cannula and recorded using a pressure transducer and a polygraph. Blood pressure levels after treatment are compared to pretreatment levels to determine the antihypertensive effects of the compounds (See Table 4).

[2] = target: AII receptor; assay: Angiotensin II receptor binding, displacement of 3H-AII; settings: read-out: Angiotensin II Receptor Binding IC50; rat adrenal cortical microsomes, 2 nM 3H-AII, 1 hour, room temperature
Experimental: The reaction mixture contained rat adrenal cortical microsomes (source of AII receptor) in Tris buffer and 2 nM of ^3 H-AII with or without potential AII antagonist. This mixture was incubated for 1 hour at room temperature and the reaction was subsequently terminated by rapid filtration and rinsing through glass microfibre filter. Receptor-bound ^3 H-AII trapped in filter was quantitated by scintillation counting.

[3] = test system: AII; settings: cited from earlier work
[4] = test system: AII; settings: cited from earlier work; remark: listed apart in the source

## CCCCc1nc2cc(C(=O)O)ccc2n1Cc1ccc(-c2ccccc2C(=O)O)cc1 [Example 36]
[1]
  Antihypertensive Effects in Renal Hypertensive Rats, Intravenous Activity: + (Significant decrease in blood pressure at 10 mg/kg or less.)
[2]
  IC50: 2.5 µM

## CCCCc1nc2ccc(CO)cc2n1Cc1ccc(-c2ccccc2C(=O)O)cc1 [Example 27, 2-Butyl-1-[(2'-Carboxybiphenyl-4-yl)methyl]-6-hydroxymethylbenzimidazole]
[1]
  Antihypertensive Effects in Renal Hypertensive Rats, Intravenous Activity: + (Significant decrease in blood pressure at 10 mg/kg or less.)
  Antihypertensive Effects in Renal Hypertensive Rats, Oral Activity: + (Significant decrease in blood pressure at 100 mg/kg or less.)
[2]
  IC50: 0.22 µM

## CCCCc1nc2ccc(C(=O)O)cc2n1Cc1ccc(-c2ccccc2C(=O)O)cc1 [Example 37]
[1]
  Antihypertensive Effects in Renal Hypertensive Rats, Intravenous Activity: + (Significant decrease in blood pressure at 10 mg/kg or less.)
[2]
  IC50: 5.7 µM

## CCOC(=O)C(Cc1nc2ccccc2n1Cc1ccc(NC(=O)c2ccccc2C(=O)O)cc1)C(=O)OCC [Example 1, 3-[1-(4-(2-Carboxybenzamido)benzyl)benzimidazol-2-yl]-2-(carboethoxy)propanoic acid, ethyl ester]
[2]
  IC50: 8.3 µM

## CCCCc1nc2cc(Cl)ccc2n1Cc1ccc(-c2ccccc2C(=O)O)cc1 [Example 38]
[1]
  Antihypertensive Effects in Renal Hypertensive Rats, Intravenous Activity: + (Significant decrease in blood pressure at 10 mg/kg or less.)
[2]
  IC50: 11 µM

## CNCC(=O)N[C@@H](CCCN=C(N)N)C(=O)N[C@H](C(=O)N[C@@H](Cc1ccc(O)cc1)C(=O)N[C@H](C(=O)N[C@@H](Cc1cnc[nH]1)C(=O)N1CCC[C@H]1C(=O)N[C@@H](C)C(=O)O)C(C)C)C(C)C [Saralasin]
[3]; in words
  Antagonism of the actions of AII: one of the most potent competitive antagonists of the actions of AII
[3]; pithed rats
  Block of the effects of AII on blood pressure: blocks the effects of AII on the blood pressure of pithed rats
[4]; elevated pressure dependent on circulating AII
  Lowering of arterial pressure: lower arterial pressure in mammals and man when the (elevated) pressure is dependent on circulating AII
[4]; oral
  Oral effectiveness: oral doses being ineffective
[4]; parenteral administration
  Duration of pharmacological effects: relatively short-lasting
[4]; pressure not sustained by AII
  Pressor effects (agonistic character): generally elicits pressor effects when the pressure is not sustained by AII

## CCOC(=O)C=Cc1nc2ccccc2n1Cc1ccc(NC(=O)c2ccccc2C(=O)O)cc1 [Example 4, 3-[1-(4-(2-Carboxybenzamido)benzyl)benzimidazol-2-yl]propenoic acid, ethyl ester]
[2]
  IC50: 15 µM

## CCCCc1nc2ccc(C=O)cc2n1Cc1ccc(-c2ccccc2C(=O)O)cc1 [Example 31]
[1]
  Antihypertensive Effects in Renal Hypertensive Rats, Intravenous Activity: + (Significant decrease in blood pressure at 10 mg/kg or less.)
[2]
  IC50: 1.4 µM

## CCCC=Cc1nc2ccccc2n1Cc1ccc(NC(=O)c2ccccc2C(=O)O)cc1 [Example 3, 1-[4-(2-Carboxybenzamido)benzyl]-2-(1-pentenyl)benzimidazole]
[2]
  IC50: 4.4 µM

## CCCCc1nc2ccc(OC)cc2n1Cc1ccc(-c2ccccc2C(=O)O)cc1 [Example 29, 1-[(2'-Carboxybiphenyl-4-yl)methyl]-2-butyl-6-methoxybenzimidazole]
[1]
  Antihypertensive Effects in Renal Hypertensive Rats, Intravenous Activity: + (Significant decrease in blood pressure at 10 mg/kg or less.)
[2]
  IC50: 0.92 µM

## CCCCc1nc2cc(OC)ccc2n1Cc1ccc(-c2ccccc2C(=O)O)cc1 [Example 30]
[1]
  Antihypertensive Effects in Renal Hypertensive Rats, Intravenous Activity: + (Significant decrease in blood pressure at 10 mg/kg or less.)
[2]
  IC50: 1 µM

## COCc1nc2cc(CO)ccc2n1Cc1ccc(-c2ccccc2C(=O)O)cc1 [Example 35]
[1]
  Antihypertensive Effects in Renal Hypertensive Rats, Intravenous Activity: + (Significant decrease in blood pressure at 10 mg/kg or less.)
[2]
  IC50: 21 µM

## CCC=Cc1nc2ccc(CO)cc2n1Cc1ccc(-c2ccccc2C(=O)O)cc1 [Example 32, 2-(1-Butenyl)-6-hydroxymethyl-1-[(2'-carboxybiphenyl-4-yl)methyl]benzimidazole]
[1]
  Antihypertensive Effects in Renal Hypertensive Rats, Intravenous Activity: + (Significant decrease in blood pressure at 10 mg/kg or less.)
  Antihypertensive Effects in Renal Hypertensive Rats, Oral Activity: + (Significant decrease in blood pressure at 100 mg/kg or less.)
[2]
  IC50: 0.5 µM

## CCOC(=O)CCc1nc2ccccc2n1Cc1ccc(NC(=O)c2ccccc2C(=O)O)cc1 [Example 2, 3-[1-(4-(2-Carboxybenzamido)benzyl)benzimidazole-2-yl]-2-propanoic acid, ethyl ester]
[2]
  IC50: 2.1 µM

## CCOC(=O)CCc1nc2ccccc2n1Cc1ccc(NC(=O)c2ccccc2NS(=O)(=O)C(F)(F)F)cc1 [Example 6]
[2]
  IC50: 2.8 µM

## CCOC(=O)C=Cc1nc2ccccc2n1Cc1ccc(NC(=O)c2ccccc2NS(=O)(=O)C(F)(F)F)cc1 [Example 5]
[2]
  IC50: 29 µM

## CCCCc1nc2ccc(Cl)cc2n1Cc1ccc(-c2ccccc2C(=O)O)cc1 [Example 33, 2-Butyl-1-[(2'-carboxybiphenyl-4-yl)methyl]-6-chlorobenzimidazole]
[1]
  Antihypertensive Effects in Renal Hypertensive Rats, Intravenous Activity: + (Significant decrease in blood pressure at 10 mg/kg or less.)
  Antihypertensive Effects in Renal Hypertensive Rats, Oral Activity: + (Significant decrease in blood pressure at 100 mg/kg or less.)
[2]
  IC50: 5 µM

## COCc1nc2ccc(CO)cc2n1Cc1ccc(-c2ccccc2C(=O)O)cc1 [Example 34]
[1]
  Antihypertensive Effects in Renal Hypertensive Rats, Intravenous Activity: + (Significant decrease in blood pressure at 10 mg/kg or less.)
[2]
  IC50: 6.3 µM

## CCCCc1nc2cc(CO)ccc2n1Cc1ccc(-c2ccccc2C(=O)O)cc1 [Example 28, 2-Butyl-1-[(2'-carboxybiphenyl-4-yl)methyl]-5-hydroxymethylbenzimidazole]
[1]
  Antihypertensive Effects in Renal Hypertensive Rats, Intravenous Activity: + (Significant decrease in blood pressure at 10 mg/kg or less.)
[2]
  IC50: 0.37 µM

Reference: patent publication US4880804A (E. I. Du Pont De Nemours and Company, priority 1988, dated 1989)
